Laboratory results published in PubChem BioAssay (NCI).
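Each compound was tested at five concentrations against cells in 96-well plates for 48 hours. Definition used: TGI = concentration required for complete inhibition of growth.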

Experiments:
Assay in all cases: NCI tumour cell line growth inhibition, 48 h
786-0 renal = system: 786-0 renal
A498 renal = system: A498 renal
A549 NSCLC = system: A549 NSCLC
ACHN renal = system: ACHN renal
BT-549 breast = system: BT-549 breast
CAKI-1 renal = system: CAKI-1 renal
CCRF-CEM leukemia = system: CCRF-CEM leukemia
COLO 205 colon = system: COLO 205 colon
DU-145 prostate = system: DU-145 prostate
EKVX NSCLC = system: EKVX NSCLC
HCC-2998 colon = system: HCC-2998 colon
HCT-116 colon = system: HCT-116 colon
HCT-15 colon = system: HCT-15 colon
HL-60(TB) leukemia = system: HL-60(TB) leukemia
HOP-62 NSCLC = system: HOP-62 NSCLC
HOP-92 NSCLC = system: HOP-92 NSCLC
HS 578T breast = system: HS 578T breast
HT29 colon = system: HT29 colon
IGROV1 ovarian = system: IGROV1 ovarian
K-562 leukemia = system: K-562 leukemia
KM12 colon = system: KM12 colon
LOX IMVI melanoma = system: LOX IMVI melanoma
M14 melanoma = system: M14 melanoma
MALME-3M melanoma = system: MALME-3M melanoma
MCF7 breast = system: MCF7 breast
MDA-MB-231 breast = system: MDA-MB-231 breast
MDA-MB-435 = system: MDA-MB-435
MDA-N = system: MDA-N
MOLT-4 leukemia = system: MOLT-4 leukemia
NCI-H226 lung = system: NCI-H226 lung
NCI-H23 lung = system: NCI-H23 lung
NCI-H460 lung = system: NCI-H460 lung
NCI-H522 lung = system: NCI-H522 lung
NCI/ADR-RES ovarian = system: NCI/ADR-RES ovarian
OVCAR-3 ovarian = system: OVCAR-3 ovarian
OVCAR-4 ovarian = system: OVCAR-4 ovarian
OVCAR-5 ovarian = system: OVCAR-5 ovarian
OVCAR-8 ovarian = system: OVCAR-8 ovarian
PC-3 prostate = system: PC-3 prostate
RPMI-8226 leukemia = system: RPMI-8226 leukemia
RXF 393 renal = system: RXF 393 renal
SF-268 CNS = system: SF-268 CNS
SF-295 CNS = system: SF-295 CNS
SF-539 CNS = system: SF-539 CNS
SK-MEL-2 melanoma = system: SK-MEL-2 melanoma
SK-MEL-28 melanoma = system: SK-MEL-28 melanoma
SK-MEL-5 melanoma = system: SK-MEL-5 melanoma
SK-OV-3 ovarian = system: SK-OV-3 ovarian
SN12C renal = system: SN12C renal
SNB-19 CNS = system: SNB-19 CNS
SNB-75 CNS = system: SNB-75 CNS
SR leukemia = system: SR leukemia
SW-620 colon = system: SW-620 colon
T-47D breast = system: T-47D breast
TK-10 renal = system: TK-10 renal
U251 CNS = system: U251 CNS
UACC-257 melanoma = system: UACC-257 melanoma
UACC-62 melanoma = system: UACC-62 melanoma
UO-31 renal = system: UO-31 renal

Measured: TGI

C=CC1C(OC2OC(CO)C(O)C(O)C2O)OC=C(C(=O)OC)C1CC1CC(=O)CC(CCc2ccc(O)cc2)O1 (centres undefined)
> 100 µM: all assays above
